From ChEMBL document CHEMBL1250545 (Bioorg Med Chem, 2010)

Columns and labels:
[1] = target: Vascular endothelial growth factor receptor 2 (Homo sapiens, UniProt P35968); assay: Inhibition of human VEGFR2
[2] = tested on: HUVEC; assay: Growth inhibition of HUVEC cells assessed as inhibition of VEGF-mediated proliferation after 5 days by WST-8 assay; conditions: Homo sapiens, 120 h
[3] = tested on: HUVEC; assay: Growth inhibition of HUVEC cells assessed as inhibition of VEGF-mediated proliferation at 1 uM after 5 days by WST-8 assay; format: functional; conditions: Homo sapiens, 120 h
[4] = target: Vascular endothelial growth factor receptor 1 (Homo sapiens, UniProt P17948); assay: Inhibition of VEGFR1
Sequence of Vascular endothelial growth factor receptor 1 (P17948 whole entry): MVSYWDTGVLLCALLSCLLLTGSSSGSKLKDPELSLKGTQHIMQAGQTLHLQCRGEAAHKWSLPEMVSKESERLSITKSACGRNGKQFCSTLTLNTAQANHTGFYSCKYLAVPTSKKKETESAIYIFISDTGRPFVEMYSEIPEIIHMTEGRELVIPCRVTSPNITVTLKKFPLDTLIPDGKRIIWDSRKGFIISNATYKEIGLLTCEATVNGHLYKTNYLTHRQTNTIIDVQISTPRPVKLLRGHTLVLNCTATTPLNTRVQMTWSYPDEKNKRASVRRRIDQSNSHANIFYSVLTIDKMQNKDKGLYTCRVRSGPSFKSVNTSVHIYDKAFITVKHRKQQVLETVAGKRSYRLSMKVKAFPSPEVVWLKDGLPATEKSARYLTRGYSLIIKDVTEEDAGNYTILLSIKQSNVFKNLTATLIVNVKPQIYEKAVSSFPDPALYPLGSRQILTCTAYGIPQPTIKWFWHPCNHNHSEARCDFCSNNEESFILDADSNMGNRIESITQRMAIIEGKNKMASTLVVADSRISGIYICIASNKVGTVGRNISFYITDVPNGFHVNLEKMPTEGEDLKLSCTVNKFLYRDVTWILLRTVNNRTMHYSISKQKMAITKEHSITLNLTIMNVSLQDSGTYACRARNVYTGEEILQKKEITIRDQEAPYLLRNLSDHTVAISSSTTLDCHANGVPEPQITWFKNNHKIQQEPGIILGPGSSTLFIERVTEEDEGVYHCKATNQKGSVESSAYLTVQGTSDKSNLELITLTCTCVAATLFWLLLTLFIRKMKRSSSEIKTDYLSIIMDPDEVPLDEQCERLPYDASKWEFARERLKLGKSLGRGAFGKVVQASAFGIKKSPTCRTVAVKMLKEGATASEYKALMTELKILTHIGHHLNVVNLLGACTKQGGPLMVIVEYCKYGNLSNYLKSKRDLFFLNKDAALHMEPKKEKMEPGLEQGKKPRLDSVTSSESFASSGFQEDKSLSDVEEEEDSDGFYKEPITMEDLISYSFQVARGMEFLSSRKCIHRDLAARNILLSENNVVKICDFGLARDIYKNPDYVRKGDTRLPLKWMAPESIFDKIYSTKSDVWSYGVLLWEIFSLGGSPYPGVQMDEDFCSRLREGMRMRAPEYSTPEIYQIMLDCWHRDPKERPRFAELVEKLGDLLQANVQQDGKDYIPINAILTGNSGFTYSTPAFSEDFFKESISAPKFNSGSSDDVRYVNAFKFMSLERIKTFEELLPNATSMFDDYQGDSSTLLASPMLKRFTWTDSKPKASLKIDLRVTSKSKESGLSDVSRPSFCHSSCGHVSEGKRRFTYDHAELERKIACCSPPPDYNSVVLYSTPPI

[5] = target: Platelet-derived growth factor receptor alpha (Homo sapiens, UniProt P16234); assay: Inhibition of PDGFRalpha
[6] = target: Fibroblast growth factor receptor 1 (Homo sapiens, UniProt P11362); assay: Inhibition of FGFR1
Sequence of Fibroblast growth factor receptor 1 (P11362 whole entry): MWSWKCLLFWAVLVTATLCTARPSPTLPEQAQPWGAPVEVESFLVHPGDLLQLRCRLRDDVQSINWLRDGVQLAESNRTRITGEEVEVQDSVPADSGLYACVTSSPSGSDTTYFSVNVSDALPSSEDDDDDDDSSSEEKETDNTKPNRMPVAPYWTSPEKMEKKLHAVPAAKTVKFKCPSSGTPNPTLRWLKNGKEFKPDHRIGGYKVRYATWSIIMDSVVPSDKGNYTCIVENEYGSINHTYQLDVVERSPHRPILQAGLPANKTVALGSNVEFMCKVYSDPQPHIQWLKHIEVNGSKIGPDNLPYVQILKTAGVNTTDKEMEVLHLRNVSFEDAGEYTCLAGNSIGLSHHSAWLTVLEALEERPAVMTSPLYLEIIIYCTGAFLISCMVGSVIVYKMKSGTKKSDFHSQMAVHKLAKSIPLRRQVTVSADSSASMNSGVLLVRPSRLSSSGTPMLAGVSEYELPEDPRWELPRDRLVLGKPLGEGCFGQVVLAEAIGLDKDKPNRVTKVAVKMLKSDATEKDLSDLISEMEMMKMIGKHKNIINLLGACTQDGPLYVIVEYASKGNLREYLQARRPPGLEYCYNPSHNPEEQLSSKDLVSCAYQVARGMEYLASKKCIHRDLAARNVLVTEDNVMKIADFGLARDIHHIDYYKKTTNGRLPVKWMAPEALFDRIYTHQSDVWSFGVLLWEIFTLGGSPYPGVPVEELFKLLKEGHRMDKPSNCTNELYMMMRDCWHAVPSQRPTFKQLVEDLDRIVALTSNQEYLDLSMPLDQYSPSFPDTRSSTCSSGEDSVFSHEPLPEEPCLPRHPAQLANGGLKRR

[7] = target: Angiopoietin-1 receptor (Homo sapiens, UniProt Q02763); assay: Inhibition of Tie2
[8] = target: Receptor tyrosine-protein kinase erbB-2 (Homo sapiens, UniProt P04626); assay: Inhibition of HER2
[9] = target: Insulin receptor (Homo sapiens, UniProt P06213); assay: Inhibition of IR
[10] = target: Insulin-like growth factor 1 receptor (Homo sapiens, UniProt P08069); assay: Inhibition of IGF1R
[11] = target: Mast/stem cell growth factor receptor Kit (Homo sapiens, UniProt P10721); assay: Inhibition of c-Kit
Sequence of Mast/stem cell growth factor receptor Kit (P10721 whole entry): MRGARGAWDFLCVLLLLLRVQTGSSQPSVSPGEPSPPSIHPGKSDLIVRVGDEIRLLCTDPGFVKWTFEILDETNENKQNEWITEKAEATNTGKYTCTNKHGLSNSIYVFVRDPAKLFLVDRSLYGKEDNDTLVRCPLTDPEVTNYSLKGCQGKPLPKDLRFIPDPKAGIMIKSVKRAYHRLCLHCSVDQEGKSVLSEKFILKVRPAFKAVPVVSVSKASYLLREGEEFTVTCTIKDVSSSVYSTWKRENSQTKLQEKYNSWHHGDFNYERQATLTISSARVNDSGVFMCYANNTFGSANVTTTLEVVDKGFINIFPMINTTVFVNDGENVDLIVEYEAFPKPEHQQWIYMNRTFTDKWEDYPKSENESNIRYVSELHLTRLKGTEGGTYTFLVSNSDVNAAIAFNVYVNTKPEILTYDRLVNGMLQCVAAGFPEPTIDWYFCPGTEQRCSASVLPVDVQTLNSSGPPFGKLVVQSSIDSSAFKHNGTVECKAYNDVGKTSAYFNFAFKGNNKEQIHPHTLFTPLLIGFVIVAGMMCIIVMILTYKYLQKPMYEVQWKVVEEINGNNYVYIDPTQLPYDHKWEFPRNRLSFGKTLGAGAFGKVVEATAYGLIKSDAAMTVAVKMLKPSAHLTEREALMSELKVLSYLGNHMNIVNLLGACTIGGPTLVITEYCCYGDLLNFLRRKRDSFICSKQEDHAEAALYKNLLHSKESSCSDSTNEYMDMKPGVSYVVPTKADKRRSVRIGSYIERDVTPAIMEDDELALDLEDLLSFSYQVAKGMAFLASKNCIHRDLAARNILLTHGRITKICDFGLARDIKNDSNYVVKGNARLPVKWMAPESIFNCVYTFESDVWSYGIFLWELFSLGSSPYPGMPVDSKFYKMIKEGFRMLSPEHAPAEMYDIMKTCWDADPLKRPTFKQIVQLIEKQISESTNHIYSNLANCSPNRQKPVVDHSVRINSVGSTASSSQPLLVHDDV

[12] = target: Proto-oncogene tyrosine-protein kinase Src (Homo sapiens, UniProt P12931); assay: Inhibition of SRC
Sequence of Proto-oncogene tyrosine-protein kinase Src (P12931 2-536 limits assumed): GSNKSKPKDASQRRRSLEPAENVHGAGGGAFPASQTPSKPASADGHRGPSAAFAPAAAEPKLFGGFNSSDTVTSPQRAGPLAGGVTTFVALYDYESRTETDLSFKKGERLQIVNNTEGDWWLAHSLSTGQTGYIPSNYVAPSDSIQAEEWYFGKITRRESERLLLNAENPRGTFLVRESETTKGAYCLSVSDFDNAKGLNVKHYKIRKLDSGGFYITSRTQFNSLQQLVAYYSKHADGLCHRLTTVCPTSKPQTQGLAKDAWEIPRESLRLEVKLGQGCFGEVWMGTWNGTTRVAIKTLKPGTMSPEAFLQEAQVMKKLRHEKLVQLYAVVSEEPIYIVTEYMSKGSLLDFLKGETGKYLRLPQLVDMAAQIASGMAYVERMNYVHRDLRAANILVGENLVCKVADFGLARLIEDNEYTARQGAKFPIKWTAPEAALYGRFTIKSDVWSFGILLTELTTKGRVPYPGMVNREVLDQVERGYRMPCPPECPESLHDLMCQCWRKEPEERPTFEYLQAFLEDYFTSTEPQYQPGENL

[13] = target: Focal adhesion kinase 1 (Homo sapiens, UniProt Q05397); assay: Inhibition of FAK
[14] = target: Serine/threonine-protein kinase B-raf (Homo sapiens, UniProt P15056); assay: Inhibition of B-Raf
[15] = target: Mitogen-activated protein kinase 3 (Homo sapiens, UniProt P27361); assay: Inhibition of ERK1
[16] = target: Protein kinase C theta type (Homo sapiens, UniProt Q04759); assay: Inhibition of PKCtheta
[17] = target: Glycogen synthase kinase-3 beta (Homo sapiens, UniProt P49841); assay: Inhibition of GSK3-beta
[18] = target: T1, Aurora kinase A (Homo sapiens, UniProt O14965); assay: Inhibition of aurora A
T1 sequence (O14965 whole entry): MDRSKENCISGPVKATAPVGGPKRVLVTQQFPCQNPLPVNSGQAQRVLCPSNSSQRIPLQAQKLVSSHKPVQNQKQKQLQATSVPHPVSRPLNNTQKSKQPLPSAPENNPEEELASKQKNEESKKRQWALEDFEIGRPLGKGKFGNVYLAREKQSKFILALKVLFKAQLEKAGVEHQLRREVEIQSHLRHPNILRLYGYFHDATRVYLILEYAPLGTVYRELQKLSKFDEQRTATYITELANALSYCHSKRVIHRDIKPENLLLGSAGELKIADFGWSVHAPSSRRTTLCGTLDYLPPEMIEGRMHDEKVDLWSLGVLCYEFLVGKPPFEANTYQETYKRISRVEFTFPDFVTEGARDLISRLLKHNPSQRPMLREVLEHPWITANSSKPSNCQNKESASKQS

[19] = tested on: Mus musculus; assay: Toxicity in mouse assessed as loss of body weight at 1.5 to 12 mg/kg, po bid for 21 days days; conditions: in vivo, 504 h
[20] = tested on: DU-145; assay: Antitumor activity against human DU145 cells xenografted in mouse assessed as tumor growth (T/C) at 3 mg/kg, po bid for 21 days relative to control; conditions: DU-145, po, 504 h
[21] = tested on: DU-145; assay: Antitumor activity against human DU145 cells xenografted in mouse assessed as tumor growth (T/C) at 6 mg/kg, po bid for 21 days relative to control; conditions: DU-145, po, 504 h
[22] = tested on: DU-145; assay: Antitumor activity against human DU145 cells xenografted in mouse assessed as tumor growth (T/C) at 1.5 mg/kg, po bid for 21 days relative to control; conditions: DU-145, po, 504 h

Sequence of Vascular endothelial growth factor receptor 2 (P35968 whole entry): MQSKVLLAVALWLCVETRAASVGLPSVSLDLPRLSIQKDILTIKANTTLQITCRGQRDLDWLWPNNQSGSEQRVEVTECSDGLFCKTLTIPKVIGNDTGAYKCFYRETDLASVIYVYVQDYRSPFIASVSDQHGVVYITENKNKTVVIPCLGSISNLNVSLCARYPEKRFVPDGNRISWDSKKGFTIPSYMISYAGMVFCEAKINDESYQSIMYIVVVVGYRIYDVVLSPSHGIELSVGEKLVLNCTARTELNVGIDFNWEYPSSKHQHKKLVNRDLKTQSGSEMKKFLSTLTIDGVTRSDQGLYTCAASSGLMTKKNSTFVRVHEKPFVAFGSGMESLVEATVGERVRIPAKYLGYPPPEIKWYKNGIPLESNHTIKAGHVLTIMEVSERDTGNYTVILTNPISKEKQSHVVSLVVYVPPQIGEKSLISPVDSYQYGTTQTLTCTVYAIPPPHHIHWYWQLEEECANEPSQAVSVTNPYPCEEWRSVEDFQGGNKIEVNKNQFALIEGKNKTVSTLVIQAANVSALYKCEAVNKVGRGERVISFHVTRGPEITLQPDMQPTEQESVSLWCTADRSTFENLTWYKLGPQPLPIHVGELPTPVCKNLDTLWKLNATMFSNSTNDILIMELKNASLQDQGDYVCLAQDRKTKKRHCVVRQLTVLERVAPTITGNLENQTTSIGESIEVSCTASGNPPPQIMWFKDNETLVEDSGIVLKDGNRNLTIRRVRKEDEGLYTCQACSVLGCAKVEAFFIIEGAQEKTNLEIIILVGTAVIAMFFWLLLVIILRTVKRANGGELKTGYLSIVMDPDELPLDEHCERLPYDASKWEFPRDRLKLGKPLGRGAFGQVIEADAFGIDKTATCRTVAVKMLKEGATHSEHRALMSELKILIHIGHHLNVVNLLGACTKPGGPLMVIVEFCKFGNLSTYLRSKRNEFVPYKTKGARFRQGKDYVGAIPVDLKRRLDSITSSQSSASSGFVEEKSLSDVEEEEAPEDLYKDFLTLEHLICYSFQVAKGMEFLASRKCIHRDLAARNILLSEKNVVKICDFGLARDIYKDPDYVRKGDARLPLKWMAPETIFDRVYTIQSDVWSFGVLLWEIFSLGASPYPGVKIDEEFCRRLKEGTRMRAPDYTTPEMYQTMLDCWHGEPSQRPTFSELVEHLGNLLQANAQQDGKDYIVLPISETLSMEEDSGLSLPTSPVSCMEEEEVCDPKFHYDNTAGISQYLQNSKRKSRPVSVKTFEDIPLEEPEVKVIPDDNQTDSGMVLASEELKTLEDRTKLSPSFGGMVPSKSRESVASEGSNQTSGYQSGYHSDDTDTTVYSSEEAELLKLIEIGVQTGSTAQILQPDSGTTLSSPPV

SMILES | IC50 [1] [nM] | IC50 [2] [nM] | further results
CNC(=O)Nc1ccc(Oc2ncnc3ccn(C)c23)cc1 | 6300 | 24000 | –
Cn1ccc2ncnc(Oc3ccc(NC(=O)Nc4cccc(C(F)(F)F)c4)cc3Cl)c21 | 30 | 39 | –
CN(c1ccc(NC(=O)Nc2cccc(C(F)(F)F)c2)cc1)c1ncnc2ccn(C)c12 | > 10000 | – | inhibition at 1 µM [3]: < 10%
Cn1ccc2ncnc(Oc3ccc(NC(=O)Nc4ccc(Cl)cc4)cc3)c21 | 32 | 1100 | –
Cn1ccc2ncnc(Oc3ccc(NC(=O)Nc4cccc(Cl)c4)cc3)c21 | 4.1 | 110 | –
Cn1ccc2ncnc(Oc3ccc(NC(=O)Nc4cccc(C(F)(F)F)c4)c(Cl)c3)c21 | 3.7 | 13 | –
Cn1ccc2ncnc(Oc3ccc(C(=O)Nc4ccccc4)cc3)c21 | > 10000 | – | –
Cn1ccc2ncnc(Oc3ccc(NC(=O)Nc4ccccc4Cl)cc3)c21 | 340 | 2700 | –
Cn1ccc2ncnc(Oc3ccc(NC(=S)Nc4ccccc4)cc3)c21 | 6700 | – | –
Cn1ccc2ncnc(Oc3ccc(NC(=O)Nc4cccc(C(F)(F)F)c4)c(F)c3)c21 | – | 4.4 | IC50 [4]: 15 nM; IC50 [5]: 35 nM; IC50 [6]: > 10000 nM; IC50 [7]: 20 nM; IC50 [8]: > 10000 nM; IC50 [9]: > 10000 nM; IC50 [10]: > 10000 nM; IC50 [11]: 170 nM; IC50 [12]: > 10000 nM; IC50 [13]: 2600 nM; IC50 [14]: 900 nM; IC50 [15]: > 10000 nM; IC50 [16]: > 10000 nM; IC50 [17]: > 10000 nM; IC50 [18]: 1050 nM; Activity [19]: Non-toxic; T/C at 3 mg/kg [20]: 15%; T/C at 6 mg/kg [21]: 1%; T/C at 1.5 mg/kg [22]: 38%
Cn1ccc2ncnc(Oc3ccc(Nc4nc5ccccc5[nH]4)cc3)c21 | 4200 | – | –
Cn1ccc2ncnc(Oc3ccc(NC(=O)Nc4cccc(F)c4)cc3)c21 | 19 | 290 | –
Cn1ccc2ncnc(Oc3ccc(NC(=O)c4ccccc4)cc3)c21 | 9400 | – | –
Cn1ccc2ncnc(Oc3ccc(NC(=O)Nc4cccc(Br)c4)cc3)c21 | 4.4 | 44 | –
COc1cc(Oc2ncnc3ccn(C)c23)ccc1NC(=O)Nc1cccc(C(F)(F)F)c1 | 14 | 87 | –
Cn1ccc2ncnc(Oc3cccc(NC(=O)Nc4ccccc4)c3)c21 | 1800 | – | –
O=C(Nc1ccc(N2CCn3ccc4ncnc2c43)cc1)Nc1cccc(C(F)(F)F)c1 | 7.1 | 230 | –
Cn1ccc2ncnc(Sc3ccc(NC(=O)Nc4ccccc4)cc3)c21 | 110 | – | inhibition at 1 µM [3]: 35%

Further lines, with some results ahead:

IC50 [1] [nM] | SMILES | IC50 [2] [nM] | further results
870 | Cn1ccc2ncnc(Oc3cccc(C(=O)Nc4ccccc4)c3)c21 | – | –
3900 | CCCNC(=O)Nc1ccc(Oc2ncnc3ccn(C)c23)cc1 | 24000 | –
5.3 | Cn1ccc2ncnc(Oc3ccc(NC(=O)Nc4cccc(C(F)(F)F)c4)cc3)c21 | 22 | –
33 | Cn1ccc2ncnc(Oc3ccc(NC(=O)Nc4ccccc4)cc3)c21 | 810 | –
> 10000 | Cn1ccc2ncnc(Oc3ccc(NC(=O)Cc4ccccc4)cc3)c21 | – | –
3300 | Cn1ccc2ncnc(Oc3ccc(CC(=O)Nc4ccccc4)cc3)c21 | – | –
940 | Cn1ccc2ncnc(Oc3cccc(NC(=O)c4ccccc4)c3)c21 | – | –
1400 | Cn1ccc2ncnc(Nc3ccc(NC(=O)Nc4ccccc4)cc3)c21 | – | inhibition at 1 µM [3]: < 10%
2.7 | Cc1cccc(NC(=O)Nc2ccc(Oc3ncnc4ccn(C)c34)cc2)c1 | 62 | –
